# Assay results reported in patent publication US7524840B2, “7,8-disubstituted pyrazolobenzodiazepines” (Hoffmann-La Roche Inc., priority 2004, dated 2009).
# How the values were obtained:
# VEGF-stimulated HUVEC = VEGF-stimulated HUVEC proliferation assay (BrdU); assay type: cell-based; conditions: Homo sapiens, BrdU labeling, VEGF 20 ng per mL, 24 hour exposure, read-out: Antiproliferative Activity VEGF-stimulated HUVEC Assay IC50
# Description: (§1) The antiproliferative activity of test compounds of this invention in cell-based assays was evaluated by BrdU assay using the BrdU kit (Roche Biochemicals 1-647-229). Human umbilical vein endothelial cells (HUVEC, Clonetics CC-2519) were cultured in EGM-2 (Clonetics CC-3162) medium and seeded at 10000 cells per well in a volume of 200 μL of EGM-2 (Clonetics CC-3162) media in a 96-well flat bottom plates (Costar 3595) overnight. After 24 hours of growth at 37° C. with 5% CO2, the incubation media was removed slowly by aspiration, and the content of each well was washed with 300 μL pre-warmed EBM-2 (Clonetics CC-3156) containing 50 μg per mL of gentamycin and 50 ng per mL of amphotercin-B (Clonetics CC-4083). Subsequently, the remaining media was again aspirated and replaced with 160 μL per well of serum starvation media (EBM-2 supplemented with 1% heat inactivated FBS (Clonetics CC-4102), 50 μg per mL gentamycin and 50 ng per mL of amphotercin-B (Clonetics CC-4083), 10 units per mL of Wyeth-Ayerst heparin (NDC0641-0391-25), and 2 mM L-glutamine (GIBCO 25030-081). After serum starving the cells for 24 hours, 20 μL of test compound at 10× test concentration in serum starvation medium with 2.5% DMSO was added to the appropriate wells. The control wells contained 20 μL of serum starvation medium with 2.5% DMSO. Plates were returned to the incubator for 2 hours. After pre-incubating the cells with the test compounds for 2 hours, 20 μL of growth factors at 10X assay concentration diluted in serum starvation media, FGF at 50 ng per mL, or VEGF (R&D systems 293-VE) at 200 ng per mL were added. The final concentration of FGF in the assay was 5 ng per mL and the final concentration of VEGF in the assays was 20 ng per mL. The growth factor free control wells had 20 μL per well of serum starvation media with the same amount of BSA as the wells with growth factors. The plates were returned to the incubator for an additional 22 hours.
# (§2) After 24 hour exposure to the test compounds, the cells were labeled with BrdU (Roche Biochemicals 1-647-229), by adding 20 μL per well of BrdU labeling reagent that has been diluted (1:100) in serum starvation medium. The plates were then returned to the incubator for 4 hours. The labeling medium was removed by draining the medium onto paper towels. […] The plates were read at 450 nm with reference wavelength of 650 nm. The percent inhibition for each test compound was calculated by subtracting the absorbency of the blank (no cells) wells from all wells, then subtracting the division of the average absorbency of each test duplicate by the average of the controls from 1. […] The IC50 is determined from the linear regression of a plot of the logarithm of the concentration versus percent inhibition.
# HCT-116 = HCT-116 (colon) cell-based MTT proliferation assay; conditions: Homo sapiens, HCT-116, 96 h, 4 days post addition of test compound, read-out: Antiproliferative Activity HCT 116 (colon) Assay IC50
# Description: The estrogen receptor negative epithelial breast carcinoma line (MDA-MB-435) was purchased from American Type Cell Culture Collection (ATCC; Rockville, Md.) and was grown in the medium recommended by ATCC. For analysis of the effect of the test compounds on growth of these cells, the cells were plated at 2000 cells per well in a 96-well tissue culture plate, and were incubated overnight at 37° C. with 5% CO2. The next day, the test compounds were dissolved in 100% dimethyl sulfoxide (DMSO) to yield a 10 mM stock solution. Each compound was diluted with sterile medium to 1 mM in a sufficient quantity to yield a final concentration of 120 μM. The compounds were then serially diluted in medium with 1.2% DMSO. One-fourth final volume of the diluted compounds was transferred to 96 well plates. Test compounds were assayed in duplicate. DMSO was added to a row of “control cells” such that the final concentration of DMSO in each well was 0.3%. Wells to which no cells were added served as the “blank.” Wells to which no inhibitor was added served as “no inhibitor control”. The plates were returned to the incubator, and 5 days post addition of test compound, were analyzed as described below.
# 3-(4,5-Dimethylthiazole-2-yl)-2,5-diphenyl-2H-tetrazolium bromide (thiazolyl blue; MTT) was added to each well to yield a final concentration of 1 mg/mL. The plates were then incubated at 37° C. for 3 hours. The plates were centrifuged at 1000 rpm for 5 minutes prior to aspiration of the MTT-containing medium. The MTT-containing medium was then removed and 100 μL 100% ethanol was added to each well to dissolve the resulting formazan metabolite. To ensure complete dissolution, plates were shaken for 15 minutes at room temperature. Absorbencies were read in a microtiter plate reader (Molecular Dynamics) at a wavelength of 570 nm with a 650 nm reference. Percent inhibition was calculated by subtracting the absorbance of the blank (no cell) wells from all wells, then subtracting the division of the average absorbance of each test duplicate by the average of the controls from 1.00. Inhibitory concentrations (IC50) were determined from the linear regression of a plot of the logarithm of the concentration versus the percent inhibition.
# The colon adenocarcinoma line SW480 and the colon carcinoma line HCT-116 also were obtained from the ATCC and were tested according to the same protocol provided above for MDA-MB-435 cell based assay with the following modifications. Cell line SW480 was plated at 1000 cells per well and analyzed at 6 days post addition of the test compound. Cell line HCT-116 was plated at 1000 cells per well and analyzed at 4 days post addition of test compound.
# FGF-stimulated HUVEC = FGF-stimulated HUVEC proliferation assay (BrdU); assay type: cell-based; conditions: Homo sapiens, BrdU labeling, FGF 5 ng per mL, 24 hour exposure, read-out: Antiproliferative Activity FGF-stimulated HUVEC Assay IC50
# Description: as §1, §2
smiles,measurement,setting,value
"COc1cc2c(cc1F)C(c1ccccc1Cl)=Nc1c(n[nH]c1C)N2 [IVa, 5-(2-chlorophenyl)-1,2-dihydro-7-fluoro-8-methoxy-3-methyl-pyrazolo[3,4-b][1,4]benzodiazepine]",IC50,VEGF-stimulated HUVEC,23 nM
same,IC50,HCT-116,1040 nM
same,IC50,FGF-stimulated HUVEC,100 nM
